Assay results as given in US7425631B2 (Amgen Inc., priority 2003, dated 2008).
pIC50: −log10 of the molar value.

Target: T1, human B1 receptor (Homo sapiens, UniProt P46663)
T1 construct: expressed in transfected cells
T1 sequence (P46663 1-353): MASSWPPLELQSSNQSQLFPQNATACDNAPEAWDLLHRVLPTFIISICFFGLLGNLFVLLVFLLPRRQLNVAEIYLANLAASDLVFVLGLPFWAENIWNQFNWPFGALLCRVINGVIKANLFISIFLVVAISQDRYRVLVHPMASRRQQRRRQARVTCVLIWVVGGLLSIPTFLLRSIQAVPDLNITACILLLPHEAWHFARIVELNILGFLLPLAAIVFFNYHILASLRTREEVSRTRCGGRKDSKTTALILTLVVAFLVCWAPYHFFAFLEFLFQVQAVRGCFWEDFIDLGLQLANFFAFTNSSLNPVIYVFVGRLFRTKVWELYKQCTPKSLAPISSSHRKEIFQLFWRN
Test: In vitro assay of human B1 receptor function using calcium flux (aequorin luminescence)
Format: cell-based
Conditions: CHO D-/hB1/Aequorin cells, agonist 20 nM des-Arg10-Kallidin (EC80); read-out: binding IC50's to hB1 receptor function
Description: Activation of the Gq linked B1 receptor results in an increase in intracellular calcium. […] Aequorin is a 21-kDa photoprotein that forms a bioluminescent complex when linked to the chromophore cofactor coelenterazine.
Following coelenterazine incubation, an automated flash-luminometer platform was used to dispense the B1 antagonist compounds (dissolved in DMSO and diluted with buffer to the desired concentration (final DMSO concentration <1% DMSO)) to the cell plate, a CCD camera situated underneath the cell plate took 12 images of the cell plate at 5 second intervals to determine if there was any agonist activity with the compounds. The hB1 agonist, des-Arg10-Kallidin, was added to the cell plate and another 12 images were recorded to determine the IC50 of the antagonist(s).

Compound	pIC50
CN([C@H](CC(=O)N[C@@H]1CCCc2cc(CN3CCCCC3)ccc21)c1ccccc1)S(=O)(=O)c1cccc(C(F)(F)F)c1 [aa, (3R)-3-(methyl((3-(trifluoromethyl)phenyl)sulfonyl)amino)-3-phenyl-N-((1R)-6-(1-piperidinylmethyl)-1,2,3,4-tetrahydro-1-naphthalenyl)propanamide]	> 8.00
CN1c2cc(CN3CCCCC3)ccc2[C@@H](NC(=O)C[C@@H](NS(=O)(=O)c2ccc3ccccc3c2)c2ccccc2)CS1(=O)=O [Example 175, (3R)-N-((4R)-1-Methyl-2,2-dioxido-7-(1-piperidinylmethyl)-3,4-dihydro-1H-2,1-benzothiazin-4-yl)-3-((2-naphthalenylsulfonyl)amino)-3-phenylpropanamide]	> 8.00
O=C(C[C@@H](NS(=O)(=O)c1cccc(C(F)(F)F)c1)c1ccc(F)cc1)N[C@@H]1CCCc2cc(CN3CCC(F)CC3)ccc21 [eb, 3-(4-Fluoro-phenyl)-N-[6-(4-fluoro-piperidin-1-ylmethyl)-1,2,3,4-tetrahydro-naphthalen-1-yl]-3-(3-trifluoromethyl-benzenesulfonylamino)-propionamide]	> 8.00
O=C(C[C@@H](NS(=O)(=O)c1cccc(C(F)(F)F)c1)c1ccccc1)N[C@@H]1CCOc2cc(CN3CCC(F)CC3)ccc21 [Example 185, (3R)-N-((4R)-7-((4-Fluoro-1-piperidinyl)methyl)-3,4-dihydro-2H-chromen-4-yl)-3-phenyl-3-(((3-(trifluoromethyl)phenyl)sulfonyl)amino)propanamide]	> 8.00
O=C(C[C@@H](NS(=O)(=O)c1cccc(C(F)(F)F)c1)c1ccccc1)N[C@@H]1CCOc2cc(CN3CCC(F)(F)CC3)ccc21 [Example 198, (3R)-N-((4R)-7-((4,4-Difluoro-1-piperidinyl)methyl)-3,4-dihydro-2H-chromen-4-yl)-3-phenyl-3-(((3-(trifluoromethyl)phenyl)sulfonyl)amino)propanamide]	> 8.00
CC(C)NCc1ccc2c(c1)CCC[C@H]2NC(=O)C[C@@H](NS(=O)(=O)c1ccc(Cl)c(Cl)c1)c1ccccc1	> 8.00
O=C(CC(NS(=O)(=O)c1cccc(C(F)(F)F)c1)c1ccc(F)cc1)N[C@@H]1CCCc2cc(CN3CCCCC3)ccc21 (stereo partly shown) [fh, 3-(4-Fluoro-phenyl)-N-(6-piperidin-1-ylmethyl-1,2,3,4-tetrahydro-naphthalen-1-yl)-3-(3-trifluoromethyl-benzenesulfonylamino)-propionamide]	> 8.00
O=C(C[C@@H](NS(=O)(=O)c1cccc(C(F)(F)F)c1)c1ccccc1)N[C@@H]1CCCc2cc(CN3CCC(F)(F)CC3)ccc21 [t, (3R)-N-((1R)-6-((4,4-difluoro-1-piperidinyl)methyl)-1,2,3,4-tetrahydro-1-naphthalenyl)-3-phenyl-3-(((3-(trifluoromethyl)phenyl)-sulfonyl)amino)propanamide]	> 8.00
CC(C)(C)NCc1ccc2c(c1)CCC[C@H]2NC(=O)C[C@@H](NS(=O)(=O)c1ccc(Cl)c(Cl)c1)c1ccc(F)cc1 [cj, N-[6-(tert-Butylamino-methyl)-1,2,3,4-tetrahydro-naphthalen-1-yl]-3-(3,4-dichloro-benzenesulfonylamino)-3-(4-fluoro-phenyl)-propionamide]	> 8.00
CC(C)(C)NCc1ccc2c(c1)OCC[C@H]2NC(=O)C[C@@H](NS(=O)(=O)c1cccc(C(F)(F)F)c1)c1ccc(F)cc1 [co, N-[7-(tert-Butylamino-methyl)-chroman-4-yl]-3-(4-fluoro-phenyl)-3-(3-trifluoromethyl-benzenesulfonylamino)-propionamide]	> 8.00
COc1ccc([C@@H](CC(=O)N[C@@H]2CCCc3cc(CN4CCCCC4)ccc32)NS(=O)(=O)c2cccc(C(F)(F)F)c2)cn1 [ay, (3R)-3-(6-(methyloxy)-3-pyridinyl)-N-((1R)-6-(1-piperidinylmethyl)-1,2,3,4-tetrahydro-1-naphthalenyl)-3-(((3-(trifluoromethyl)phenyl)sulfonyl)amino)propanamide]	> 8.00
CC(C)(C)NCc1ccc2c(c1)OCC[C@H]2NC(=O)C[C@@H](NS(=O)(=O)c1cccc(C(F)(F)F)c1)c1ccccc1 [Example 170, (3R)-N-((4R)-7-(((1,1-Dimethylethyl)amino)methyl)-3,4-dihydro-2H-chromen-4-yl)-3-phenyl-3-(((3-(trifluoromethyl)phenyl)sulfonyl)amino)propanamide]	> 8.00
CC(C)(C)NCc1ccc2c(c1)CCC[C@H]2NC(=O)C[C@@H](NS(=O)(=O)c1cccc(C(F)(F)F)c1)c1cccc([N+](=O)[O-])c1 [cx, N-[6-(tert-Butylamino-methyl)-1,2,3,4-tetrahydro-naphthalen-1-yl]-3-(3-nitro-phenyl)-3-(3-trifluoromethyl-benzenesulfonylamino)-propionamide]	> 8.00
O=C(C[C@@H](NS(=O)(=O)c1ccc(Cl)c(Cl)c1)c1ccc(F)cc1)N[C@@H]1CCCc2cc(CN3CCCCC3)ccc21 [bz, 3-(3,4-Dichloro-benzenesulfonylamino)-3-(4-fluoro-phenyl)-N-(6-piperidin-1-ylmethyl-1,2,3,4-tetrahydro-naphthalen-1-yl)-propionamide]	> 8.00
CC(C)CNCc1ccc2c(c1)CCC[C@H]2NC(=O)C[C@@H](NS(=O)(=O)c1ccc(C(C)(C)C)cc1)c1ccc(F)cc1 [dj, 3-(4-tert-Butyl-benzenesulfonylamino)-3-(4-fluoro-phenyl)-N-[6-(isobutylamino-methyl)-1,2,3,4-tetrahydro-naphthalen-1-yl]-propionamide]	> 8.00
C=C(CN1CCCCC1)c1ccc2c(c1)CCC[C@H]2NC(=O)C[C@@H](NS(=O)(=O)c1cccc(C(F)(F)F)c1)c1ccccc1 [Example 218r, (3R)-3-phenyl-N-((1R)-6-(1-(1-piperidinylmethyl)ethenyl)-1,2,3,4-tetrahydro-1-naphthalenyl)-3-(((3-(trifluoromethyl)phenyl)sulfonyl)amino)propanamide]	> 8.00
CC(C)CNC(C)c1ccc2c(c1)CCC[C@H]2NC(=O)C[C@@H](NS(=O)(=O)c1ccc2ccccc2c1)c1ccccc1 (stereo partly shown) [Example 220g]	> 8.00
O=C(C[C@@H](NS(=O)(=O)c1ccc(Cl)c(Cl)c1)c1ccccc1)N[C@@H]1CCOc2cc(CN3CCCCC3)ccc21 [Example 168, (3R)-3-(((3,4-Dichlorophenyl)sulfonyl)amino)-3-phenyl-N-((4R)-7-(1-piperidinylmethyl)-3,4-dihydro-2H-chromen-4-yl)propanamide]	> 8.00
O=C(CC(NS(=O)(=O)c1cccc(C(F)(F)F)c1)c1ccc(F)cc1)N[C@@H]1CCCc2cc(CN3CCCCC3)ccc21 (stereo in doubt) [ba, (3S)-3-(4-fluorophenyl)-N-((1R)-6-(1-piperidinylmethyl)-1,2,3,4-tetrahydro-1-naphthalenyl)-3-(((3-(trifluoromethyl)phenyl)sulfonyl)amino)propanamide]	> 8.00
O=C(C[C@@H](NS(=O)(=O)c1ccc(Cl)c(Cl)c1)c1cccc(F)c1)N[C@@H]1CCCc2cc(CNC3CCCC3)ccc21 [dx, N-(6-Cyclopentylaminomethyl-1,2,3,4-tetrahydro-naphthalen-1-yl)-3-(3,4-dichloro-benzenesulfonylamino)-3-(3-fluoro-phenyl)-propionamide]	> 8.00
Cc1c(S(=O)(=O)N[C@H](CC(=O)NC2CCCc3cc(CN4CCCCC4)ccc32)c2ccccc2)sc2ccc(Cl)cc12 (stereo partly drawn) [ae, (3R)-3-(((5-chloro-3-methyl-1-benzothien-2-yl)sulfonyl)amino)-3-phenyl-N-(6-(1-piperidinylmethyl)-1,2,3,4-tetrahydro-1-naphthalenyl)propanamide]	> 8.00
O=C(CC(NS(=O)(=O)c1ccc(Cl)c(Cl)c1)c1ccc(F)cc1)NC1CCOc2cc(CN3CCCCC3)ccc21 (stereo not shown) [by, 3-(3,4-Dichloro-benzenesulfonylamino)-3-(4-fluoro-phenyl)-N-(7-piperidin-1-ylmethyl-chroman-4-yl)-propionamide]	> 8.00
C=C(CN1CCCCC1)c1ccc2c(c1)CCC[C@H]2NC(=O)C[C@@H](NS(=O)(=O)c1ccc(Cl)c(Cl)c1)c1ccccc1 [Example 218d, (3R)-3-(((3,4-dichlorophenyl)sulfonyl)amino)-3-phenyl-N-((1R)-6-(1-(1-piperidinylmethyl)ethenyl)-1,2,3,4-tetrahydro-1-naphthalenyl)propanamide]	> 8.00
O=C(C[C@@H](NS(=O)(=O)c1cccc(C(F)(F)F)c1)c1ccc(F)cc1)N[C@@H]1CCOc2cc(CN3CCCC3)ccc21 [ct, 3-(4-Fluoro-phenyl)-N-(7-pyrrolidin-1-ylmethyl-chroman-4-yl)-3-(3-trifluoromethyl-benzenesulfonylamino)-propionamide]	> 8.00
CC(C)(C)NCc1ccc2c(c1)CCC[C@H]2NC(=O)C[C@H](NS(=O)(=O)c1cccc(C(F)(F)F)c1)c1ccc([N+](=O)[O-])cc1 [em, N-[6-(tert-Butylamino-methyl)-1,2,3,4-tetrahydro-naphthalen-1-yl]-3-(4-nitro-phenyl)-3-(3-trifluoromethyl-benzenesulfonylamino)-propionamide]	> 8.00
